US6465654B2, “Process for preparing 1-substituted, 2-substituted 1H-imidazo[4, 5-c]quinoline-4-amines” (3M Innovative Properties Company, priority 1991, dated 2002)

Key:
interferon = assay: Interferon induction in mice; type: in vivo; conditions: mouse serum
Experimental: One hour later blood samples are withdrawn from the first group. The samples are pooled then centrifuged. The serum is removed from the centrifuge tube, split into two portions, then placed in freezing vials and maintained at −70° C. until analysis. This procedure is repeated at 2 hours with the second group of mice and at 4 hours with the third group of mice. Samples are assayed as described above in connection with the analysis of interferon induction in human cells. The results are expressed in the table below as α/β reference units/mL based on the value obtained for a mouse MU-1-IF standard. Results are shown in the table below wherein results designated as “<” a certain number indicate that interferon was not detectable in amounts above the lower sensitivity level of the assay.

[1] = tested on: vesicular stomatitis virus (VSV); assay: microbe, parasite or virus in culture; type: cell-based; conditions: for log reduction at 1 µg/mL / log reduction at 5 µg/mL / log reduction at 10 µg/mL / log reduction at 0.1 µg/mL / log reduction at 0.5 µg/mL: Vesicular stomatitis virus, read-out: VSV Yield Inhibition; for VSV Yield Inhibition: log10 (control VSV yield/experimental VSV yield)
interferon-α = assay: Interferon-α induction in human cells, PBM; type: cell-based; conditions: 24 hours

Structure (SMILES) | Interferon induction in mice (interferon; oral 0.3 mg/kg, 1 hr) | Interferon induction in mice (interferon; oral 0.3 mg/kg, 2 hr) [Reference Units/mL] | Interferon induction in mice (interferon; oral 0.3 mg/kg, 4 hr) [Reference Units/mL] | Interferon induction in mice (interferon; oral 1 mg/kg, 1 hr) | Interferon induction in mice (interferon; oral 1 mg/kg, 2 hr) [Reference Units/mL] | Interferon induction in mice (interferon; oral 1 mg/kg, 4 hr) | Interferon induction in mice (interferon; oral 3 mg/kg, 1 hr) | Interferon induction in mice (interferon; oral 3 mg/kg, 2 hr) [Reference Units/mL] | Interferon induction in mice (interferon; oral 3 mg/kg, 4 hr) | Interferon induction in mice (interferon; oral 10 mg/kg, 1 hr) [Reference Units/mL] | Interferon induction in mice (interferon; oral 10 mg/kg, 2 hr) [Reference Units/mL] | Interferon induction in mice (interferon; oral 10 mg/kg, 4 hr) | log reduction at 1 µg/mL [1] | Interferon-α induction (interferon-α; dose concentration 0.10 μg/mL) | Interferon-α induction (interferon-α; dose concentration 0.50 μg/mL) | Interferon-α induction (interferon-α; dose concentration 1.0 μg/mL) | Interferon-α induction (interferon-α; dose concentration 5.0 μg/mL) | log reduction at 0.1 µg/mL [1] | log reduction at 0.5 µg/mL [1] | Interferon-α induction (interferon-α; dose concentration 0.01 μg/mL) | also measured
CC(=O)NCc1nc2c(N)nc3ccccc3c2n1CC(C)C [Example 15, N-Acetyl-4-amino-1-(2-methylpropyl)-1H-imidazo-[4,5-c]quinoline-2-methanamine] | <120 Reference Units/mL | <120 | <120 | <120 Reference Units/mL | <120 | <120 Reference Units/mL | <120 Reference Units/mL | 270 | <120 Reference Units/mL | 270 | 3100 | 270 Reference Units/mL | 6 | <1.8 α Reference Units/mL | 250 α Reference Units/mL | 430 α Reference Units/mL | 750 α Reference Units/mL |  |  |  | log reduction at 5 µg/mL [1]: 5; log reduction at 10 µg/mL [1]: 5
Nc1nc2ccccc2c2c1nc(CO)n2Cc1ccccc1 [Example 27, 4-Amino-1-phenylmethyl-1H-imidazo[4,5-c]-quinoline-2-methanol] | <45 Reference Units/mL | <45 | <45 | <45 Reference Units/mL | <45 | <45 Reference Units/mL | <59 Reference Units/mL | 230 | <45 Reference Units/mL | 130 | 690 | <45 Reference Units/mL | 4 | 3300 α Reference Units/mL | 550 α Reference Units/mL | 370 α Reference Units/mL | 490 α Reference Units/mL | 4 | 3 | <4 α Reference Units/mL | Interferon-α induction (interferon-α; dose concentration 0.05 μg/mL): 24 α Reference Units/mL
CCOCc1nc2c(N)nc3ccccc3c2n1CC(C)C [Example 40, 2-Ethoxymethyl-1-(2-methylpropyl)-1H-imidazo[4,5-c]quinolin-4-amine] | 450 Reference Units/mL | 200 | <29 | 450 Reference Units/mL | 450 | 110 Reference Units/mL | 990 Reference Units/mL | 1100 | 210 Reference Units/mL | 1600 | 1600 | 170 Reference Units/mL | 7 | 680 α Reference Units/mL | 230 α Reference Units/mL | 210 α Reference Units/mL | 210 α Reference Units/mL |  |  |  | log reduction at 5 µg/mL [1]: 7; log reduction at 10 µg/mL [1]: 6
CCOCc1nc2c(N)nc3ccccc3c2n1CCCOC [Example 44, 2-Ethoxymethyl-1-(3-methoxypropyl)-1H-imidazo[4,5-c]quinolin-4-amine] | ˜570 Reference Units/mL | 510 | <260 | 990 Reference Units/mL | <260 | <260 Reference Units/mL | 1000 Reference Units/mL | 1500 | <260 Reference Units/mL | 1800 | 1600 | 790 Reference Units/mL | 7 | 3000 α Reference Units/mL | 430 α Reference Units/mL | 430 α Reference Units/mL | 760 α Reference Units/mL | 3 | 4 |  | 
COC(c1ccccc1)c1nc2c(N)nc3ccccc3c2n1CC(C)C (stereo not drawn) [Example 51, 2-(α-Methoxybenzyl)-1-(2-methylpropyl)-1H-imidazo[4,5-c]quinolin-4-amine] |  |  |  |  |  |  |  |  |  |  |  |  | 5 | <5 α Reference Units/mL | <5 α Reference Units/mL | 1000 α Reference Units/mL | 330 α Reference Units/mL | 0 | 1 |  | 
CCCCC(OC)c1nc2c(N)nc3ccccc3c2n1CC(C)C (stereo not shown) [Example 61, 2-(1-Methoxypentyl)-1-(2-methylproyl) -1H-imidazo[4,5-c]quinolin-4-amine] | <56 Reference Units/mL | <56 | <56 | 120 Reference Units/mL | 220 | 97 Reference Units/mL | 290 Reference Units/mL | 500 | 120 Reference Units/mL | 290 | 1100 | 160 Reference Units/mL |  | 64 α Reference Units/mL | 1300 α Reference Units/mL | 330 α Reference Units/mL | 330 α Reference Units/mL |  |  |  | VSV Yield Inhibition ([1]; dose concentration 0.1 μg/mL): 5 log10; VSV Yield Inhibition ([1]; dose concentration 0.5 μg/mL): 7 log10; VSV Yield Inhibition ([1]; dose concentration 1.0 μg/mL): 5 log10
COCCc1nc2c(N)nc3ccccc3c2n1CC(C)C [Example 72, 2-(2-Methoxyethyl)-1-(2-methylpropyl)-1H-imidazo[4,5-c]quinolin-4-amine] |  |  |  |  |  |  |  |  |  |  |  |  | 5 | 200 α Reference Units/mL | 210 α Reference Units/mL | 220 α Reference Units/mL | 420 α Reference Units/mL | 5 | 5 |  | 
COC(C)Cc1nc2c(N)nc3ccccc3c2n1CC(C)C (stereo not shown) [Example 77, 2-(2-Methoxypropyl)-1-(2-methylpropyl)-1H-imidazo[4,5-c]quinolin-4-amine] |  |  |  |  |  |  |  |  |  |  |  |  | 5 | 2600 α Reference Units/mL | 390 α Reference Units/mL | 250 α Reference Units/mL | 280 α Reference Units/mL | 3 | 5 | <6.3 α Reference Units/mL | Interferon-α induction (interferon-α; dose concentration 0.05 μg/mL): <6.3 α Reference Units/mL
CC(C)Cn1c(CC(C)O)nc2c(N)nc3ccccc3c21 (stereo not drawn) [Example 81, 4-Amino-α-methyl-1-(2-methylpropyl)-1H-imidazo[4,5-c]quinoline-2-ethanol] |  |  |  |  |  |  |  |  |  |  |  |  | 5 | 1100 α Reference Units/mL | 2200 α Reference Units/mL | 460 α Reference Units/mL | 1100 α Reference Units/mL | 5 | 4 |  | 
CCCCn1c(COCC)nc2c(N)nc3ccccc3c21 [Example 117, 1-Butyl-2-ethoxymethyl-1H-imidazo[4,5-c]quinolin-4-amine] | <160 Reference Units/mL | 1200 | <160 | ≦270 Reference Units/mL | 630 | ≦270 Reference Units/mL | ˜820 Reference Units/mL | 2200 | ˜310 Reference Units/mL | 1100 | 480 | ˜310 Reference Units/mL |  | 340 α Reference Units/mL | 140 α Reference Units/mL | 91 α Reference Units/mL | 110 α Reference Units/mL |  |  | <4.4 α Reference Units/mL | Interferon-α induction (interferon-α; dose concentration 0.05 μg/mL): 360 α Reference Units/mL
